Assay results reported in US20030105048A1, “Oligobenzimidazole derivatives and their use as DNA transfecting agents” (priority 1999, published 2003).

Legend:
[1] = system: DNA plasmid; experiment: Agarose gel electrophoresis of DNA plasmid complexed with derivative or cationic lipid; assay type: binding; conditions: increasing amounts per μg of DNA; revealed with ethidium bromide
Experimental: For this, an agarose gel of a DNA plasmid mixed with increasing amounts of derivative (1) or (2) according to the invention was prepared (see FIG. 4). […] Two bands could thus be observed by virtue of the specific spectral absorption properties of the derivatives according to the present invention:
It is observed that the DNA migrates in an identical manner to the naked DNA, irrespective of the concentration of derivative 20 according to the invention.

[2] = system: HeLa cells; experiment: In vitro transfection of plasmid pXL3031 (luciferase expression) in the presence and absence of serum; assay type: cell-based; conditions: 48 hours after transfection
Experimental: The plasmid used The DNA used is the plasmid pXL3031 (see FIG. 7) as a solution in a mixture of 5% dextrose and 10 mM sodium chloride at a concentration of 0.5 mg/ml or 1.0 mg/ml. This plasmid contains the luc gene encoding luciferase under the control of the cytomegalovirus P/E CMV promoter. Its size is 3671 bp. The plasmid pXL3031 was purified according to the methods described in patent application WO 97/35002.
The nucleic acid solutions are diluted to 20 μg/ml in physiological saline (0.15 M sodium chloride).
The oligobenzimidazole derivative (2) according to the invention is dissolved in water to a concentration ranging from 40 to 160 μmol and mixed, volume for volume, with the DNA solution. The final saline concentration is 75 mmol.
HeLa cells are cultured under suitable conditions on 24-well microplates (2 cm^2/well) and are transfected while they are in the exponential growth phase and at 50-70% of confluence.
The cells are washed with twice 0.5 cm^3 of medium free of seric proteins and are regrown either in serum-free medium (transfection in the absence of serum) or in whole medium (transfection in the presence of serum). 0.05 cm^3 of cytofecting mixture (0.5 μg of DNA/well) are added to the cells (3 wells/DNA-vector condition). When the cells are transfected in the absence of serum, the growth medium is supplemented, 2 hours after the transfection, with a suitable amount of serum.
The transfecting efficacy is evaluated 48 hours after transfection by measuring the expression of luciferase according to the recommendations given for using the Promega kit (“Luciferase Assay System”). The toxicity of the cytofecting mixtures is estimated by measuring the protein concentrations in cell lysates.
The in vitro luciferase activity results relative to the proteins expressed in RLU/5 μl/10 s/μg of protein (written more simply as RLU/μg of protein, “RLU” meaning “relative light unit”) are given in the table below: […]

[3] = system: mouse muscles; experiment: In vivo intramuscular transfection of plasmid pXL3031 (luciferase expression) with or without electrotransfer; set-up: species or system C57B16 mice; conditions: 4 μg of DNA/muscle, 7 days
Experimental: The plasmid used is the same as the one described above for Example 5 (pXL3031). Similarly, the cytofecting solutions are prepared in the same way as in Example 5.
25 μl of solutions of derivative (1)/DNA complexes are injected intramuscularly to C57B16 mice, at a rate of 4 μg of DNA/mouse muscle.
The transfection efficacy is evaluated 7 days 5 after transfection by measuring the expression of luciferase according to the recommendations given for using the Promega kit (Luciferase Assay System). The muscles are ground in 1.5 ml of lysis buffer (with protease inhibitors). After assaying the luciferase activity on 10 μl, the results are expressed as RLU/10 μl/10 sec.
The in vivo luciferase activity results in mouse muscles, expressed in RLU/10 μl/10 sec, are collated in the table below: […]

CCCCCCCCCCCCNC(=O)Oc1ccc(-c2nc3ccc(-c4nc5ccc(N6CCN(C)CC6)cc5[nH]4)cc3[nH]2)cc1 [Derivative (2), 4-[6-(4-methyl-1-piperazinyl)-1H,3′H-[2,5′]bisbenzimidazol-2′-yl]-1-dodecylcarbamoyloxy phenyl]
electrophoretic mobility of complexes with DNA on agarose gel [1]: same electrophoretic mobility properties as the naked DNA | in vitro luciferase activity ([2]; 4 nmol/μg of DNA, + serum): 9.8 E+02 RLU/μg of protein | in vitro luciferase activity ([2]; 4 nmol/μg of DNA, absence of serum): 1.3 E+03 RLU/μg of protein | in vitro luciferase activity ([2]; 8 nmol/μg of DNA, + serum): 4.6 E+02 RLU/μg of protein | in vitro luciferase activity ([2]; 8 nmol/μg of DNA, absence of serum): 1.7 E+03 RLU/μg of protein | in vitro luciferase activity ([2]; 10 nmol/μg of DNA, + serum): 1.1 E+02 RLU/μg of protein | in vitro luciferase activity ([2]; 10 nmol/μg of DNA, absence of serum): 1.7 E+03 RLU/μg of protein

CCCCCCCCCCCCCCN(CCCCCCCCCCCCCC)C(=O)CNC(=O)CNCCN(CCN)CCN [cationic lipid, reference compound]
electrophoretic mobility of complexes with DNA on agarose gel [1]: varies with the amount of cationic lipid present with the DNA

CCCCCCCCCCCCCCCCCCNC(=O)Oc1ccc(-c2nc3ccc(-c4nc5ccc(N6CCN(C)CC6)cc5[nH]4)cc3[nH]2)cc1 [Derivative (1), 4-[6-(4-methyl-1-piperazinyl)-1H,3′H-[2,5′]bisbenzimidazol-2′-yl]-1-octadecylcarbamoyloxy phenyl]
electrophoretic mobility of complexes with DNA on agarose gel [1]: same electrophoretic mobility properties as the naked DNA | in vivo luciferase activity in mouse muscles ([3]; 0.2 nmol/μg of DNA, with electrotransfer): 1.14 E+07 RLU/10 μl/10 sec | in vivo luciferase activity in mouse muscles ([3]; 0.2 nmol/μg of DNA, without electrotransfer): 3.45 E+04 RLU/10 μl/10 sec | in vivo luciferase activity in mouse muscles ([3]; 0.5 nmol/μg of DNA, with electrotransfer): 2.19 E+07 RLU/10 μl/10 sec | in vivo luciferase activity in mouse muscles ([3]; 0.5 nmol/μg of DNA, without electrotransfer): 1.67 E+04 RLU/10 μl/10 sec | in vivo luciferase activity in mouse muscles ([3]; 1 nmol/μg of DNA, with electrotransfer): 1.82 E+07 RLU/10 μl/10 sec | in vivo luciferase activity in mouse muscles ([3]; 1 nmol/μg of DNA, without electrotransfer): 1.06 E+04 RLU/10 μl/10 sec
